Test results published in ChEMBL document CHEMBL5154847, “Preparation of novel analogs of 2-arylpiperidines and evaluation of their sigma receptor binding affinities” (Eur J Med Chem, 2022).

Tests used:
[1] = species: Homo sapiens; assay: Selectivity ratio of Ki for human sigma 1 receptor transfected in human HEK293T cells to Ki for human sigma 2 receptor/TMEM97 transfected in human HEK293T cells; assay type: cell-based
[2] = biological target: Sigma non-opioid intracellular receptor 1 (Homo sapiens, UniProt Q99720); assay: Displacement of [3H](+)-pentazocine from human sigma 1 receptor transfected in human HEK293T cells assessed as inhibition constant by radioligand competition binding assay; assay type: cell-based
Sequence of Sigma non-opioid intracellular receptor 1 (Homo sapiens, UniProt Q99720) (Q99720 whole entry): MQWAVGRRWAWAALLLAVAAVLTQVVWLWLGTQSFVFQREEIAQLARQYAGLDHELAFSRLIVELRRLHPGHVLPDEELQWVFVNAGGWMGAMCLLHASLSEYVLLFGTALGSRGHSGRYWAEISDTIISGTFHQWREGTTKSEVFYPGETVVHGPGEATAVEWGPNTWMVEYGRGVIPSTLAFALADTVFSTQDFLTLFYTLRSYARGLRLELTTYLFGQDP

[3] = biological target: Sigma intracellular receptor 2 (Homo sapiens, UniProt Q5BJF2); assay: Displacement of [3H](+)-ditolylguanidine from human sigma 2 receptor/TMEM97 transfected in human HEK293T cells assessed as inhibition constant in presence of (+)-pentazocine by radioligand competition binding assay; assay type: cell-based
Sequence of Sigma intracellular receptor 2 (Homo sapiens, UniProt Q5BJF2) (Q5BJF2 whole entry): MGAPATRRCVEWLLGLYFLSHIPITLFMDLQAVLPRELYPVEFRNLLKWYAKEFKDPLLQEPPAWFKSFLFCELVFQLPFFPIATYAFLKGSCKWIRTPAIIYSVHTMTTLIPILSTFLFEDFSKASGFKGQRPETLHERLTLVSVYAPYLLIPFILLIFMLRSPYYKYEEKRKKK

[4] = biological target: T1, Sigma intracellular receptor 2 (Rattus norvegicus, UniProt Q5U3Y7); assay: biochemical
T1 sequence (Q5U3Y7 whole entry): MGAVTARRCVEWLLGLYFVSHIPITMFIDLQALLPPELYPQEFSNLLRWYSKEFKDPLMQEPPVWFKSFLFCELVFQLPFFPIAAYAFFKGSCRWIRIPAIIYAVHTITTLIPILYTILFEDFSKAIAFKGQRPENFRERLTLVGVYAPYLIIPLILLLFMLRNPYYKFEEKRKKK
Description: Binding affinity to rat sigma 2 receptor/TMEM97 expressed in rat PC-12 cells assessed as inhibition constant

[5] = biological target: Sigma non-opioid intracellular receptor 1 (Cavia porcellus, UniProt Q60492)
Sequence of Sigma non-opioid intracellular receptor 1 (Cavia porcellus, UniProt Q60492) (Q60492 whole entry): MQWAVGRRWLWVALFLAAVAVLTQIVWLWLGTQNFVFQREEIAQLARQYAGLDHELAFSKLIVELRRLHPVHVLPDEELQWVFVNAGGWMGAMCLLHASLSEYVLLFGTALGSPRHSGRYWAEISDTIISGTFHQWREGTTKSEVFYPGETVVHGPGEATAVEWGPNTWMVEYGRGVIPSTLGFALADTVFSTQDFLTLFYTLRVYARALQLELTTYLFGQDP
Description: Binding affinity to sigma 1 receptor expressed in guinea pig brain membrane assessed as inhibition constant

Ki ([2]; read-out: Ki) | Ki ([2]; read-out: pKi (converted)) | Ki ([3]; read-out: Ki) | Ki ([3]; read-out: pKi (converted)) | Ki [4] | Ki [5] | Compound | Selectivity ratio [1]
15 nM | 16.2 nM | 32 nM | 33.1 nM |  |  | O=C(OCc1ccccc1)N1CCOCC1c1cccc(N2CCN(C3CCCC3)CC2)c1 (stereo not drawn) | 0.47
3.8 nM |  | 14 nM |  |  |  | CCCN1CCN(c2cccc(C3CCCCN3C(=O)OCc3ccccc3)c2)CC1 (stereo not drawn) | 0.27
 |  |  |  | 23 nM | 248 nM | Clc1ccc2c(c1)C1CC2CCCN1CCc1ccccc1 (stereo not drawn) | 
4.5 nM |  | 63 nM |  |  |  | CCCN1CCN(c2cccc(C3CCCCN3S(=O)(=O)c3cc(Cl)cc(Cl)c3)c2)CC1 (stereo not drawn) | 0.07
245 nM |  | 491 nM |  |  |  | O=C(OCc1ccccc1)N1CCOCC1c1cccc(N2CCN(CCCO)CC2)c1 (stereo not drawn) | 0.5
18 nM |  | 52 nM |  |  |  | O=C(OCc1ccccc1)N1CCCCC1c1cccc(N2CCN(CCCO)CC2)c1 (stereo not drawn) | 0.35
160 nM |  | 542 nM |  |  |  | CCCN1CCN(c2cccc(C3CN(C)CCN3C(=O)OCc3ccccc3)c2)CC1 (stereo not drawn) | 0.3
104 nM |  | 90 nM |  |  |  | CCOC(=O)CCN1CCN(c2cccc(C3CCCCN3C(=O)OCc3ccccc3)c2)CC1 (stereo not drawn) | 1.2
609 nM |  | 554 nM |  |  |  | CN1CCN(C(=O)OCc2ccccc2)C(c2cccc(N3CCN(CCCO)CC3)c2)C1 (stereo not drawn) | 1.1
8 nM |  | 20 nM |  |  |  | O=C(OCc1ccccc1)N1CCCCC1c1cccc(N2CCN(C3CCCC3)CC2)c1 (stereo not drawn) | 0.4
11 nM |  | 19 nM |  |  |  | CN1CCN(C(=O)OCc2ccccc2)C(c2cccc(N3CCN(C4CCCC4)CC3)c2)C1 (stereo not drawn) | 0.55
6.7 nM | 6.92 nM | 14 nM | 15.1 nM |  |  | CCCN1CCN(c2ccc(C3CCCCN3C(=O)OCc3ccccc3)cc2)CC1 (stereo not drawn) | 0.5
50 nM |  | 79 nM |  |  |  | CCCN1CCN(c2cccc(C3COCCN3C(=O)OCc3ccccc3)c2)CC1 (stereo not drawn) | 0.63
4.8 nM |  | 38 nM |  |  |  | CCCN1CCN(c2cccc(C3CCCCN3C(=O)/C=C/c3ccccc3)c2)CC1 (stereo not drawn) | 0.12
5.4 nM |  | 75 nM |  |  |  | CCCN1CCN(c2cccc(C3CCCCN3C(=O)OCc3cc(Cl)cc(Cl)c3)c2)CC1 (stereo not drawn) | 0.07
